From ChEMBL document CHEMBL5728216, “Cyclopropyl fused thiazine derivatives as beta-secretase inhibitors and methods of use” (2021)

Legend:
Beta-secretase 1 = Beta-secretase 1 (Homo sapiens, UniProt P56817); test: In Vitro Enzymatic FRET (Fluorescence Resonance Energy Transfer) Assays: The cDNAs for both human recombinant BACE1 and 2 with C-terminal 6-His Tags were cloned into transient protein expression vectors, which were subsequently transfected into mammalian cell lines. These recombinant proteins were further purified using Ni-NTA affinity chromatography (Qiagen). The assay buffer used in these screens was 0.05 M acetate, pH 4.5, 8% DMSO final, 100 μM genapol (which is a nonionic detergent, below its Critical Micelle Concentration). The β-secretase enzyme (0.02 nM for BACE1 and 0.64 nM for BACE2), which was pre-incubated for one hour with the test compound, typically in about 1 uL of DMSO according to a serial dilution, was added thereto. The assay was effectively started by the addition of FRET substrate (50 nM) and the combination was incubated for one hour. The FRET assay was terminated by the addition of tris buffer, which raised the pH to neutrality, and the fluorescence was determined. The FRET substrate was a peptide with commercially available fluorophore and quencher, on opposite sides of the BACE cleavage site. The specific FRET substrate used in this assay was made by Amgen in-house. […]
Beta-secretase 2 = biological target: T1, Beta-secretase 2 (Homo sapiens, UniProt Q9Y5Z0); test: These recombinant proteins were further purified using Ni-NTA affinity chromatography (Qiagen).
T1 sequence (Q9Y5Z0 whole entry): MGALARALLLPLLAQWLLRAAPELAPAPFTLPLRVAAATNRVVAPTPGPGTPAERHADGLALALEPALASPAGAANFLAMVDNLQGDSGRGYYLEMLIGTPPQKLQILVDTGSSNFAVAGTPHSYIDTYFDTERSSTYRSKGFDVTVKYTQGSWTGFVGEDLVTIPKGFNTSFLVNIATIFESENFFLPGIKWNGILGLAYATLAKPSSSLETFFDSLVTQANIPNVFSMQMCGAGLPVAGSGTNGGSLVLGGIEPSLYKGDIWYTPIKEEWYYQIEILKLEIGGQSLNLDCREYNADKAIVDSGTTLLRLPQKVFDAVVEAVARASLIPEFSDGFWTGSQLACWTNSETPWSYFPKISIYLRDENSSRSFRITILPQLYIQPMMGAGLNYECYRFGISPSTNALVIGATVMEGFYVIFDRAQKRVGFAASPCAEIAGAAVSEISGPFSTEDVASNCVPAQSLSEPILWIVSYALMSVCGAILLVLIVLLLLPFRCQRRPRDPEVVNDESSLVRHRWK

Cathepsin D = Cathepsin D (Homo sapiens, UniProt P07339); test: In Vitro Enzymatic FRET Assay: Recombinant CatD was expressed in CHO cells. The assay buffer for CatD was 0.05 M citrate pH 3.5, 10% DMSO final, 5 mM CHAPS. The CatD enzyme (9 nM) was pre-incubated for one hour with inhibitors, typically in about 1 uL of DMSO according to a serial dilution, is added thereto. The assays was effectively started by the addition of different FRET substrates (20 nM for CatD) and the combination was incubated for one hour. The FRET assay was terminated with by addition of tris buffer, which raises the pH to neutrality, and the fluorescence was determined. The FRET substrate was a peptide with commercially available fluorophore and quencher, on opposite sides of the CatD cleavage site. The CatD substrate peptide sequence was based on sequence #1 of Table 1 from Gulnik et al., FEBS Lett. 413(2):379-384 (1997). Proteolytic cleavage of the FRET substrate released quenching of fluorescence (CatD excitation 500 nm and emission 580 nm).; type: cell-based
Cathepsin D, sequence (P07339 65-162 limits assumed): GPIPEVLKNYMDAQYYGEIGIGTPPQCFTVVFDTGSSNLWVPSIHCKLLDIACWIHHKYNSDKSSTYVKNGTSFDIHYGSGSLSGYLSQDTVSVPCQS
Cathepsin D, sequence (P07339 169-412 limits assumed): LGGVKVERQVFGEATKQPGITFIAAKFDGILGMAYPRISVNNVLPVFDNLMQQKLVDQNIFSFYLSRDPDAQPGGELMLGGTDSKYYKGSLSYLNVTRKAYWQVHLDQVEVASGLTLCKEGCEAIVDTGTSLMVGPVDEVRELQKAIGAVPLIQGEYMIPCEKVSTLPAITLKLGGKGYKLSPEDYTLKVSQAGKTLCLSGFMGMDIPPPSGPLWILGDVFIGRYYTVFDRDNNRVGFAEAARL

Beta-secretase 1, sequence (P56817 whole entry): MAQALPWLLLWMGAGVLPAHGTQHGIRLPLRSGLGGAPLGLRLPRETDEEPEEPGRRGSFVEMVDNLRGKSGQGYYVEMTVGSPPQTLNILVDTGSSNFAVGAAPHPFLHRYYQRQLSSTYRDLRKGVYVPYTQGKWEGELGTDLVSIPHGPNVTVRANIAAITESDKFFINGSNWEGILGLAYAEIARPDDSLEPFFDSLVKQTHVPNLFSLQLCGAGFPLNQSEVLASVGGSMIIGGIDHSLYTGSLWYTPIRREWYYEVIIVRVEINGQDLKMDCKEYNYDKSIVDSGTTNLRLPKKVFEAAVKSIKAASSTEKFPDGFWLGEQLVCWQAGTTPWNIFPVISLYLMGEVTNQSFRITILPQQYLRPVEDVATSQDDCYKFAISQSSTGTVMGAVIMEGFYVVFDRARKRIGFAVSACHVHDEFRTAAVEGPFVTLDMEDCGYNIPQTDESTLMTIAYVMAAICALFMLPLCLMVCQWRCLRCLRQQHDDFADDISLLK

COC[C@]12CC1[C@@](C)(c1cc(C#Cc3ncc(Cl)cc3C)ccc1F)N=C(N)S2 (stereo partly drawn)
IC50 (Beta-secretase 1): 129 nM
IC50 (Beta-secretase 2): 613 nM
IC50 (Cathepsin D): > 400000 nM
